Values joined by “and” are separate entries in the source; they are usually repeats but may differ in a detail not shown here. Equal values may be shown once. Read-outs that look alike come from different tables or passages of the source.
Legend:
[1] = target: T1, IMPDH2 CBS domain pair (wild type) (Homo sapiens, UniProt P12268); assay: Displacement of bound ATP; assay type: binding
T1 construct: For IMPDH2, DNAs encoding residues 112-232 or the full-length protein (1-514) were amplified; His tag (vector pHAT20); made in house; host or cells: E. coli
Experimental: ATP or [^35S]SAM were incubated with GST-CBS domain fusions (1 ìM for WT, up to 20 μM for some mutants) for 10 min at 25° C. in a 20 il total volume in TBS. Reactions were stopped by spotting 10 ìl onto a Millipore MF Filter Membrane disc and rapidly washing under high vacuum with 1 ml of ice-cold TBS. Radioactivity was determined on the filters by scintillation counting. Non-specific binding (which was trivial) was determined by performing the assay with GST as a control, and was subtracted. […] Data were fitted to the binding models given in the text, using GraphPad Prism 3.

AMPK = assay: Activation of AMPK (data not shown); assay type: biochemical; conditions: read-out: concentration giving half-maximal activation
rat liver AMPK = conditions: read-out: half-maximal effect (A0.5), cited from earlier work
[2] = target: T2, CLC2 CBS domain pair G826D (Homo sapiens, UniProt P51788, G828D); assay: Filter binding assay, GST-CBS domain fusion; conditions: single-site model
T2 construct: DNAs encoding residues 582-840 of CLC2; made in house; host or cells: E. coli BL21 (DE3)
T2 sequence (P51788 582-840 G828D): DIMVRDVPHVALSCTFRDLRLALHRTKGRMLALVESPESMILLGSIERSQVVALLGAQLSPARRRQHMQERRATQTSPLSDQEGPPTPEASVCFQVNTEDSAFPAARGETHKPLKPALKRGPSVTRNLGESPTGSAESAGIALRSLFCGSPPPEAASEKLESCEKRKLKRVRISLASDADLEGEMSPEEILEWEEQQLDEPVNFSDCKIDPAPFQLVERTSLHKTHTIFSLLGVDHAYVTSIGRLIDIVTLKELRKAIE
Description: (§1) DNA encoding the CBS domain pair from the chloride channel CLC2 was also cloned and expressed. […] The G715E mutation, in the linker between the first and second CBS domains of CLC2, is associated with idiopathic generalized epilepsy (29), while the G826D mutation is in an equivalent position in the second CBS domain to the G859D mutation in CLC1 that is associated with congenital myotonia (28).
(§2) For IMPDH2, DNAs encoding residues 112-232 or the full-length protein (1-514) were amplified using human liver cDNA (Clontech) as template, and cloned into pHAT20 (Clontech) using 5′-AgeI and 3′-KpnI sites added to the primers. For the other constructs, DNAs encoding residues 582-840 of CLC2, or 416-551 of cystathionine â-synthase, were amplified using human liver cDNA as template, and cloned into pGEX-KG as above using 5′-BamHI and 3′-XhoI sites added to the primers. All mutations were created using the Stratagene QuikChange Site-directed Mutagenesis system.
(§3) Various concentrations of [^14C]-AMP, [γ^32P] […] Reactions were stopped by spotting 10 ìl onto a Millipore MF Filter Membrane disc and rapidly washing under high vacuum with 1 ml of ice-cold TBS. Radioactivity was determined on the filters by scintillation counting. Non-specific binding (which was trivial) was determined by performing the assay with GST as a control, and was subtracted. […]

CLC2 CBS1-2 (G715E) = target: T3, CLC2 CBS1-2 (G715E) (Homo sapiens, UniProt P51788, G715E); assay: Filter binding assay, GST-CBS domain fusion; conditions: single-site model
T3 construct: DNAs encoding residues 582-840 of CLC2; made in house; host or cells: E. coli BL21 (DE3)
T3 sequence (P51788 582-840 G715E): as the sequence (P51788 582-840 G828D) above, with G134E, D247G counted along it
Description: as §1, §2, §3

[3] = target: T4, recombinant á1â1γ1 heterotrimer (Rattus norvegicus, UniProt P80385); assay: AMPK heterotrimer kinase assay, activation by AMP; assay type: biochemical
T4 construct: expressed in transfected cells; host or cells: CCL13 cells
T4 sequence (P80385 whole entry): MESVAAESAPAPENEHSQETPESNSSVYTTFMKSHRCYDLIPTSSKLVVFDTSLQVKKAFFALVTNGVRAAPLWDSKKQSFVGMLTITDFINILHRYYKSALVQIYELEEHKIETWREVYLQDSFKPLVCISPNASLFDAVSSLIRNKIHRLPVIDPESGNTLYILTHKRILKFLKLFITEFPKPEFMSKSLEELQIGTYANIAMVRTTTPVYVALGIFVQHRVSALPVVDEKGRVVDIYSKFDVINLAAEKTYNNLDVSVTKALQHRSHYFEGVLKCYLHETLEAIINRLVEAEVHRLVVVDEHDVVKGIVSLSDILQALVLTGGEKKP
T4 sequence (P54645 whole entry partner): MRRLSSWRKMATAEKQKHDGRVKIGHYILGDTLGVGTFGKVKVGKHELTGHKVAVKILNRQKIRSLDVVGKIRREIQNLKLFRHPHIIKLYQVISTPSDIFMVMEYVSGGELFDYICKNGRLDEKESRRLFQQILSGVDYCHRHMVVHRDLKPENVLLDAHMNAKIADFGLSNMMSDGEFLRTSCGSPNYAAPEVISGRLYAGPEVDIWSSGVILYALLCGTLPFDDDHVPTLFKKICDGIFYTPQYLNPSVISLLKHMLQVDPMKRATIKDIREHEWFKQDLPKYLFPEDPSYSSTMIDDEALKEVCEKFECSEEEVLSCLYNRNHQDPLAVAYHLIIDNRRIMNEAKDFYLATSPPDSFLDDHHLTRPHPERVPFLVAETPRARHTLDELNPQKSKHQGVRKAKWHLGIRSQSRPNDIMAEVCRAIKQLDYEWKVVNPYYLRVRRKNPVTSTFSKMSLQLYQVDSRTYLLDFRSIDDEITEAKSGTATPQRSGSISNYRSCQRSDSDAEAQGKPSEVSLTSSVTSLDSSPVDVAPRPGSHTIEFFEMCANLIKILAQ
T4 sequence (P80386 whole entry partner): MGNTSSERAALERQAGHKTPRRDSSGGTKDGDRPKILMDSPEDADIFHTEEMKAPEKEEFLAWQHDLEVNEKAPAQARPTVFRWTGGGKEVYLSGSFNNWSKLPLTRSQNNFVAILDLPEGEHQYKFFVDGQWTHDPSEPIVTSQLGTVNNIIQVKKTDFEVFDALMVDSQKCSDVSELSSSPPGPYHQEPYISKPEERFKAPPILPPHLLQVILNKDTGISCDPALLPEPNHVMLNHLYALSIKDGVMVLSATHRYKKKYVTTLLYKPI
Description: (§4) Plasmids expressing myc-tagged á1, â1 and γ1, γ2 (with or without WPWS mutations) or γ3 were expressed in CCL13 cells and the recombinant complexes immunoprecipitated using anti-myc antibodies.
(§5) PCDNA plasmids (14,25,32) encoding á1, â1 and γ1, γ2 or γ3 were expressed in CCL13 cells (25), subject to “rapid lysis”, immunoprecipitated using anti-myc antibody, and assayed as described previously (33). “Slow lysis” of CCL13 cells was as described by Stein et al (34).

[4] = target: T5, recombinant á1â1γ3 heterotrimer (Homo sapiens, UniProt Q9UGI9); assay: AMPK heterotrimer kinase assay, activation by AMP; assay type: biochemical
T5 construct: expressed in transfected cells; host or cells: CCL13 cells
T5 sequence (Q9UGI9 whole entry): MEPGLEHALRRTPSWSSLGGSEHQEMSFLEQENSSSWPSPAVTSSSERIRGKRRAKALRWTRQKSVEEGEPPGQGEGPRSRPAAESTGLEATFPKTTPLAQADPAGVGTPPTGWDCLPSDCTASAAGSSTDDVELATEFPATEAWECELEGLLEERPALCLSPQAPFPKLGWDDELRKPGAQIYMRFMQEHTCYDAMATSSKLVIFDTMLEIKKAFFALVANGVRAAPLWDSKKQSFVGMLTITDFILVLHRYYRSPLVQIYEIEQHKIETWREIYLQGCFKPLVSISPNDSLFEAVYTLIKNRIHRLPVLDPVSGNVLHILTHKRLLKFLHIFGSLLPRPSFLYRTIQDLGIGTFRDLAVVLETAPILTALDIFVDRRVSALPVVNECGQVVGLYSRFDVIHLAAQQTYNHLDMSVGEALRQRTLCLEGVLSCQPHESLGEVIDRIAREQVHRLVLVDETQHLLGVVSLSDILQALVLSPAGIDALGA
T5 sequence (P54645 whole entry partner): as the sequence (P54645 whole entry partner) above
T5 sequence (P80386 2-270 partner limits assumed): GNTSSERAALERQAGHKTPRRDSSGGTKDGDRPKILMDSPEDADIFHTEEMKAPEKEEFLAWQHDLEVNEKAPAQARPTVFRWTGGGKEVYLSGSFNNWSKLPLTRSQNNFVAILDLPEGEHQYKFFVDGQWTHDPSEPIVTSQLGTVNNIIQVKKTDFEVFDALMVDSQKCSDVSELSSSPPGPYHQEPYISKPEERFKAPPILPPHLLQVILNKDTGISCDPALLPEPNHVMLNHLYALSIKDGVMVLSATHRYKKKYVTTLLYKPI
Description: as §4, §5

[5] = target: T6, full-length IMPDH2 (R224P) (Homo sapiens, UniProt P12268, R224P); assay: Enzymatic assay of IMPDH2; assay type: biochemical; conditions: highest concentration used 2 mM
T6 construct: DNAs encoding residues 112-232 or the full-length protein (1-514) were amplified using human liver cDNA; His tag (vector pHAT20); made in house; host or cells: E. coli
Experimental: (§6) IMPDH2 was assayed by following the increase in absorbance at 340 nm due to formation of NADH in a BMG Fluostar Optima plate reader at 30° C. in plate mode. The assay buffer contained 50 mM Tris/HCl, 100 mM KCl, 1 mM DTT, 3 mM EDTA, and 5 mM MgCl. […] The total volume was 200 μl and the reaction started by addition of IMP (or NAD^+ where [IMP] was the variable).

[6] = target: T7, full-length IMPDH2 (wild type) (Homo sapiens, UniProt P12268); assay: Enzymatic assay of IMPDH2; assay type: biochemical
T7 construct: DNAs encoding residues 112-232 or the full-length protein (1-514) were amplified using human liver cDNA; His tag (vector pHAT20); made in house; host or cells: E. coli
Experimental: as §6

IMPDH2 CBS1-2 (R224P) = target: T8, IMPDH2 CBS1-2 (R224P) (Homo sapiens, UniProt P12268, R224P); assay: Filter binding assay, isolated CBS domain pair; conditions: single-site model
T8 construct: DNAs encoding residues 112-232 or the full-length protein (1-514) were amplified; His tag (pHAT20 vector); made in house; host or cells: E. coli
Description: To examine whether binding of adenine nucleotides is a general function for CBS domains, or is specific to the γ subunits of AMPK, IMP dehydrogenase (IMPDH) was also studied. Retinitis pigmentosa can be caused by an R224P mutation in the second CBS domain of the IMPDH1 isoform (27). However, the IMPDH2 isoform is 84% identical in amino acid sequence with IMPDH1, and the arginine mutated in retinitis pigmentosa is conserved. Because the IMPDH2 isoform is ubiquitously expressed and a suitable cDNA to use as a template for PCR was more readily available, DNA encoding the single pair of CBS domains from human IMPDH2 was cloned, an R224P mutation was created and expressed both the wild type and the mutant as His-tagged proteins in E. coli.
as §2
(§7) The IMPDH2 constructs were His-tagged and were purified on chelating-Sepharose (Pharmacia) charged with 50 mM CoCl2 according to manufacturer's instructions.
Various concentrations of [^14C]-AMP, [γ^32P] […] Reactions were stopped by spotting 10 ìl onto a Millipore MF Filter Membrane disc and rapidly washing under high vacuum with 1 ml of ice-cold TBS. Radioactivity was determined on the filters by scintillation counting. Non-specific binding (which was trivial) was determined by performing the assay with GST as a control, and was subtracted. […] Data were fitted to the binding models given in the text, using GraphPad Prism 3. […]

IMPDH2 Tetramer (R224P) = target: T9, IMPDH2 Tetramer (R224P) (Homo sapiens, UniProt P12268, R224P); assay: Filter binding assay, full-length protein
T9 construct: the full-length protein (1-514); His tag (pHAT20 vector); made in house; host or cells: E. coli
Description: as §2, §7
(§8) Various concentrations of [^14C]-AMP, [γ^32P] […] Reactions were stopped by spotting 10 ìl onto a Millipore MF Filter Membrane disc and rapidly washing under high vacuum with 1 ml of ice-cold TBS. Radioactivity was determined on the filters by scintillation counting. Non-specific binding (which was trivial) was determined by performing the assay with GST as a control, and was subtracted. […] Data were fitted to the binding models given in the text, using GraphPad Prism 3. Estimates of parameters resulting from fits are quoted in the text and Table 1±standard error, and the curves shown in figures are theoretical curves obtained using those estimates.

IMPDH2 Tetramer (WT) = target: T10, IMPDH2 Tetramer (WT) (Homo sapiens, UniProt P12268); assay: Filter binding assay, full-length protein; conditions: for Kd: read-out: B0.5
T10 construct: the full-length protein (1-514); His tag (pHAT20 vector); made in house; host or cells: E. coli
Description: as §2, §7, §8

SMILES: Nc1ncnc2c1ncn2[C@@H]1O[C@H](COP(=O)(O)O)[C@@H](O)[C@H]1O [AMP, adenosine monophosphate]
- Kd [1]: 440 µM
- EC50 (AMPK): 4.7 µM
- EC50 (rat liver AMPK; assays in 200 μM ATP): 4.4 µM
- EC50 (rat liver AMPK; at 4 mM ATP): 29 µM
- Kd [2]: 14300 ± 550 µM
- Kd (CLC2 CBS1-2 (G715E)): 10400 ± 1300 µM
- stimulation by AMP [3]: 3.3 fold
- EC50 ([3]; immunoprecipitated from CCL13 cells, slow lysis, read-out: A0.5): 13 ± 2 µM
- stimulation by AMP [4]: 1.5 fold
- EC50 ([4]; approximate only, read-out: A0.5): 2 ± 2 µM

SMILES: Nc1ncnc2c1ncn2[C@@H]1O[C@H](COP(=O)(O)OP(=O)(O)OP(=O)(O)O)[C@@H](O)[C@H]1O [ATP]
- effect on activity [5]: no effect
- Hill coefficient of activation [6]: 1.3±0.1
- stimulation of IMPDH activity (Vmax) [6]: > 4 fold
- EC50 ([6]; read-out: A0.5 for ATP activation, as printed in discussion): 440 µM
- EC50 ([6]; read-out: half-maximal effect): 440 ± 50 µM
- Kd (IMPDH2 CBS1-2 (R224P)): 450 ± 36 µM
- h (Hill coefficient) (IMPDH2 Tetramer (R224P)): 0.9 ± 0.1
- Kd (IMPDH2 Tetramer (R224P); Hill equation, 4 sites, read-out: B0.5): 64000 ± 5000 µM
- h (Hill coefficient) (IMPDH2 Tetramer (WT)): 1.7 and 1.7 ± 0.2
- Kd (IMPDH2 Tetramer (WT); Hill equation, 4 sites): 770 µM
- Kd (IMPDH2 Tetramer (WT)): 760 µM

— patent publication US20050202511A1, “AMP-activated protein kinase (AMPK) inhibitor screening assay” (priority 2002, published 2005)
